According to ChEMBL document CHEMBL3885881, “DrugMatrix”:

Species on record: Rattus norvegicus
Test: DrugMatrix - Regimen: Daily Repeat
Format: toxicity, organism-based, Sprague-Dawley
Set-up: regimen Daily Repeat, gender Male, age 6-8 weeks
Details: in vivo, po, route oral GAVAGE, vehicle .5 % CMC; for TOTAL PROTEIN / ALANINE AMINOTRANSFERASE / ALBUMIN / ALKALINE PHOSPHATASE / ASPARTATE AMINOTRANSFERASE / CARBON DIOXIDE / CHLORIDE / CHOLESTEROL / CREATINE PHOSPHOKINASE / CREATININE / GLUCOSE / LACTATE DEHYDROGENASE / LIPASE / PHOSPHORUS / POTASSIUM / SODIUM / TOTAL BILIRUBIN / BLOOD UREA NITROGEN: tissue Plasma; for ABSOLUTE BASOPHIL / ABSOLUTE EOSINOPHIL / ABSOLUTE LYMPHOCYTE / ABSOLUTE MONOCYTE / ABSOLUTE SEGMENTED NEUTROPHIL / BASOPHIL / EOSINOPHIL / ERYTHROCYTE COUNT / HEMATOCRIT / HEMOGLOBIN / LEUKOCYTE COUNT / LYMPHOCYTE / MEAN CORPUSCULAR HEMOGLOBIN / MEAN CORPUSCULAR HEMOGLOBIN CONCENTRATION / MEAN CORPUSCULAR VOLUME / MONOCYTE / NEUTROPHIL / NUCLEATED RED BLOOD CELLS / PLATELET COUNT: tissue Blood
[1] = 25 mg/kg, 120 h, dose level Low, time 5 day
[2] = 1500 mg/kg, 72 h, dose level High, time 3 day
[3] = 1500 mg/kg, 120 h, dose level High, time 5 day

COc1cc(/C=C/C(=O)O)ccc1O [FERULATE]
TOTAL PROTEIN (25 mg/kg, 72 h, dose level Low, time 3 day): 5.97 G/DL | ABSOLUTE BASOPHIL [1]: 0 CELLS/uL | ABSOLUTE EOSINOPHIL [1]: 170 CELLS/uL | ABSOLUTE LYMPHOCYTE [1]: 14805 CELLS/uL | ABSOLUTE MONOCYTE [1]: 286 CELLS/uL | ABSOLUTE SEGMENTED NEUTROPHIL [1]: 1439 CELLS/uL | BASOPHIL [1]: 0% | EOSINOPHIL [1]: 1.33% | ERYTHROCYTE COUNT [1]: 5.63 x10E6/uL | HEMATOCRIT [1]: 35.7% | HEMOGLOBIN [1]: 13.7 G/DL | LEUKOCYTE COUNT [1]: 16.7 x10E3/uL | LYMPHOCYTE [1]: 87.67% | MEAN CORPUSCULAR HEMOGLOBIN [1]: 24.43 pg | MEAN CORPUSCULAR HEMOGLOBIN CONCENTRATION [1]: 38.37 G/DL | MEAN CORPUSCULAR VOLUME [1]: 63.63 fL | MONOCYTE [1]: 1.67% | NEUTROPHIL [1]: 9.33% | NUCLEATED RED BLOOD CELLS [1]: 0.33 /100WBC | PLATELET COUNT [1]: 1379.67 x10E3/uL | ALANINE AMINOTRANSFERASE [1]: 52.67 u/L | ALBUMIN [1]: 4.27 G/DL | ALKALINE PHOSPHATASE [1]: 350.33 u/L | ASPARTATE AMINOTRANSFERASE [1]: 91.33 u/L | CARBON DIOXIDE [1]: 28 mmol/L | CHLORIDE [1]: 104.67 MEQ/L | CHOLESTEROL [1]: 79.67 mg/dL | CREATINE PHOSPHOKINASE [1]: 317 u/L | CREATININE [1]: 0.18 mg/dL | GLUCOSE [1]: 160.67 mg/dL | LACTATE DEHYDROGENASE [1]: 421.67 u/L | LIPASE [1]: 9.33 u/L | PHOSPHORUS [1]: 12.9 mg/dL | POTASSIUM [1]: 6.65 MEQ/L | SODIUM [1]: 144.87 MEQ/L | TOTAL BILIRUBIN [1]: 0.17 mg/dL | TOTAL PROTEIN [1]: 5.93 G/DL | ABSOLUTE BASOPHIL [2]: 0 CELLS/uL | ABSOLUTE EOSINOPHIL [2]: 42 CELLS/uL | ABSOLUTE LYMPHOCYTE [2]: 12584.67 CELLS/uL | ABSOLUTE MONOCYTE [2]: 382 CELLS/uL | ABSOLUTE SEGMENTED NEUTROPHIL [2]: 1124.67 CELLS/uL | BASOPHIL [2]: 0% | EOSINOPHIL [2]: 0.33% | ERYTHROCYTE COUNT [2]: 5.75 x10E6/uL | HEMATOCRIT [2]: 35.2% | HEMOGLOBIN [2]: 13.03 G/DL | LEUKOCYTE COUNT [2]: 14.13 x10E3/uL | LYMPHOCYTE [2]: 89% | MEAN CORPUSCULAR HEMOGLOBIN [2]: 22.7 pg | MEAN CORPUSCULAR HEMOGLOBIN CONCENTRATION [2]: 37.03 G/DL | MEAN CORPUSCULAR VOLUME [2]: 61.23 fL | MONOCYTE [2]: 2.67% | NEUTROPHIL [2]: 8% | NUCLEATED RED BLOOD CELLS [2]: 0.33 /100WBC | PLATELET COUNT [2]: 1425.67 x10E3/uL | ALANINE AMINOTRANSFERASE [2]: 67.67 u/L | ALBUMIN [2]: 4.13 G/DL | ALKALINE PHOSPHATASE [2]: 355 u/L | ASPARTATE AMINOTRANSFERASE [2]: 102.67 u/L | BLOOD UREA NITROGEN [2]: 13.67 mg/dL | CARBON DIOXIDE [2]: 25.67 mmol/L | CHLORIDE [2]: 103.33 MEQ/L | CHOLESTEROL [2]: 81.67 mg/dL | CREATINE PHOSPHOKINASE [2]: 489 u/L | CREATININE [2]: 0.15 mg/dL | GLUCOSE [2]: 140.67 mg/dL | LACTATE DEHYDROGENASE [2]: 475.67 u/L | LIPASE [2]: 10 u/L | PHOSPHORUS [2]: 10.73 mg/dL | POTASSIUM [2]: 6.23 MEQ/L | SODIUM [2]: 143.87 MEQ/L | TOTAL BILIRUBIN [2]: 0.2 mg/dL | TOTAL PROTEIN [2]: 5.5 G/DL | ABSOLUTE BASOPHIL [3]: 0 CELLS/uL | ABSOLUTE EOSINOPHIL [3]: 97 CELLS/uL | ABSOLUTE LYMPHOCYTE [3]: 18780.67 CELLS/uL | ABSOLUTE MONOCYTE [3]: 55.33 CELLS/uL | ABSOLUTE SEGMENTED NEUTROPHIL [3]: 967 CELLS/uL | BASOPHIL [3]: 0% | EOSINOPHIL [3]: 0.33% | ERYTHROCYTE COUNT [3]: 6.33 x10E6/uL | HEMATOCRIT [3]: 38.23% | HEMOGLOBIN [3]: 14.4 G/DL | LEUKOCYTE COUNT [3]: 19.9 x10E3/uL | LYMPHOCYTE [3]: 94% | MEAN CORPUSCULAR HEMOGLOBIN [3]: 22.73 pg | MEAN CORPUSCULAR HEMOGLOBIN CONCENTRATION [3]: 37.67 G/DL | MEAN CORPUSCULAR VOLUME [3]: 60.37 fL | MONOCYTE [3]: 0.33% | NEUTROPHIL [3]: 5.33% | NUCLEATED RED BLOOD CELLS [3]: 0.33 /100WBC | PLATELET COUNT [3]: 1095 x10E3/uL | ALANINE AMINOTRANSFERASE [3]: 64.33 u/L | ALBUMIN [3]: 4.57 G/DL | ALKALINE PHOSPHATASE [3]: 399 u/L | ASPARTATE AMINOTRANSFERASE [3]: 93.67 u/L | BLOOD UREA NITROGEN [3]: 16.33 mg/dL | CARBON DIOXIDE [3]: 26 mmol/L | CHLORIDE [3]: 107 MEQ/L | CHOLESTEROL [3]: 64.67 mg/dL | CREATINE PHOSPHOKINASE [3]: 723.33 u/L | CREATININE [3]: 0.21 mg/dL | GLUCOSE [3]: 164.33 mg/dL | LACTATE DEHYDROGENASE [3]: 166.67 u/L | LIPASE [3]: 9.67 u/L | PHOSPHORUS [3]: 11.4 mg/dL | POTASSIUM [3]: 6.41 MEQ/L | SODIUM [3]: 146.6 MEQ/L | TOTAL BILIRUBIN [3]: 0.2 mg/dL | TOTAL PROTEIN [3]: 6.17 G/DL
